Data set [1] relates to hiPSC-CMs. Nature of the data set: Optical measurement of action potential duration (APD90) in hiPSC-CMs using voltage-sensitive dye di-4-ANEPPS. Conditions: for activity at 0.01 µM / activity at 0.1 µM / activity at 0.3 µM / activity at 1 µM / EC (50% APD prolongation): Homo sapiens; for activity at 0.01 µM / activity at 0.1 µM / activity at 0.3 µM / activity at 1 µM: 0.5 h, read-out: Changes in APD90 in hiPSC-CMs; for EC (50% APD prolongation): read-out: D150 (concentration that prolongs the AP by 50%), APD90 in hiPSC-CMs. As for the experimental part:
The plates were then incubated at 37°C, 5% CO2. Forty‐eight hours post‐thaw, 100% of the plating medium was replaced with CDI Maintenance Medium (CDI, CMC‐100‐120‐001), and further, 100% media changes were performed every 2 days after that.
Afterwards, the medium containing VSD was replaced by fresh serum‐free medium, and the cells were returned to the incubator. The multi‐well plate was placed in an environmentally controlled stage incubator (37°C, 5% CO2, water‐saturated air atmosphere) (Okolab Inc, Burlingame, CA, USA) of the CelIOPTIQ platform (Clyde Biosciences Ltd, Glasgow, Scotland). The di‐4‐ANEPPS fluorescence signal was recorded from a 0.2 × 0.2 mm area using a 40× (NA 0.6) objective lens. Excitation wavelength was 470 ± 10 nm using a light‐emitting diode (LED), and emitted light was collected by two photomultipliers (PMTs) at 510–560 and 590–650 nm respectively. LED, PMT, associated power supplies and amplifiers were supplied by Cairn Research Ltd (Kent, UK). […] A 20 s recording was then taken 30 min after exposure to the drug or vehicle with only one concentration applied per well. The records were subsequently analysed offline using proprietary software (CellOPTIQ). The procedure was repeated from four to five times, and parallel matched control (vehicle) measurements were taken on cardiomyocytes with equivalent concentrations of vehicle (DMSO). AP parameters were measured, including APD at 50, 75 and 90% repolarization (APD50, APD75 and APD90 respectively). Data are given as % change from control for the treated groups (vehicle, control and drug). This allowed a single comparison to be made at each concentration, and every experiment was performed with its own set of controls (vehicle). No data were used more than once.

The target of data set [2] is hERG channels (Homo sapiens, UniProt Q12809). Description: hERG current inhibition, automated planar patch clamp in HEK293 cells stably expressing hERG. The procedure: (§1) Currents were low‐pass filtered at 10 kHz using the internal Bessel filter and sampled at 25 kHz. The extracellular solution for hERG current recording contained 140 mM NaCl, 4 mM KCl, 2 mM CaCl2, 1 mM MgCl2,5 mM D‐glucose and 10 mM HEPES (pH 7.4) (Sigma‐Aldrich). The intracellular solution for hERG current recording contained 50 mM KCl, 10 mM NaCl, 60 mM KF, 20 mM EGTA and 10 mM HEPES (pH 7.2). The extracellular solution for measuring sodium currents in HEK cells stably expressing the human clone of Nav1.5 (GenBank M77235) contained 4 mM KCl, 20 mM NaCl, 1.8 mM CaCl2, 0.75 mM MgCl2, 5 mM HEPES, 120 mM choline chloride and pH 7.4 using NaOH. The intracellular solution for sodium current recording contained 120 mM CsF, 20 mM CsCl, 5 mM EGTA, 5 mM HEPES and pH 7.4 using CsOH. All chemicals were obtained from Sigma‐Aldrich Chemie GmbH (Taufkirchen, Germany). The compound solutions were applied by means of the automated NPC‐16 Patchliner planar patch‐clamp platform.
hERG channels, sequence (Q12809 whole entry): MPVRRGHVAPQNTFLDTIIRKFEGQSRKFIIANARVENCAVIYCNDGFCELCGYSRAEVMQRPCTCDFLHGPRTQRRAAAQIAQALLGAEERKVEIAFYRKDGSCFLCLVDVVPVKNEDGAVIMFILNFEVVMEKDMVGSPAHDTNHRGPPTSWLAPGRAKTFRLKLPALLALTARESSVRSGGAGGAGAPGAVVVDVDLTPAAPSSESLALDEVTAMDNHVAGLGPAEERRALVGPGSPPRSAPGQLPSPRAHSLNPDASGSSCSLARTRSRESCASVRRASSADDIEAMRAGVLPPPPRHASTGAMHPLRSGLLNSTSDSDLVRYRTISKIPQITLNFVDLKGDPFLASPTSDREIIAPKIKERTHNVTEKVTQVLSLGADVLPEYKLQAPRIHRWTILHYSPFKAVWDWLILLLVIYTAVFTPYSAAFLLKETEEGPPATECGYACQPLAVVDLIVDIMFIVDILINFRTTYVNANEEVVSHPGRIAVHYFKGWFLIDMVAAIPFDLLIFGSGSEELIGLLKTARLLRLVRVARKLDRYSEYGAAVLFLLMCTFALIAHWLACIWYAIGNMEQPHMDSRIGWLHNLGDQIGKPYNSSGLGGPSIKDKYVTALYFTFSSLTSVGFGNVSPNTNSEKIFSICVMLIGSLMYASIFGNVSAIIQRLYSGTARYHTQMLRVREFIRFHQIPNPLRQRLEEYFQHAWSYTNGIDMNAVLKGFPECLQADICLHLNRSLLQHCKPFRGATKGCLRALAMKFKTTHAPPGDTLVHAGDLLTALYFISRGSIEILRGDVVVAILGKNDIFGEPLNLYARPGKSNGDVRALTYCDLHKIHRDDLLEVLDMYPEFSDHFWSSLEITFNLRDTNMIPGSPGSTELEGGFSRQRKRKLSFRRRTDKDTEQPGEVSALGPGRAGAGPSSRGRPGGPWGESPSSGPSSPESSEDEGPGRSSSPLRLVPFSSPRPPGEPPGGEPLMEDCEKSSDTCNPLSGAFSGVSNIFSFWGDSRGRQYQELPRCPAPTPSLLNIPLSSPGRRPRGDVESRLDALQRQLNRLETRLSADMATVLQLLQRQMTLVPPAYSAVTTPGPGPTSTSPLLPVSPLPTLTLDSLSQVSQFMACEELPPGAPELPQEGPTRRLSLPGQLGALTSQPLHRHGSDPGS
Data are presented as mean ± SEM for at least five cells from two different batches or for three independent measurements with HEK293 cells.
The concentration–inhibition relationships were analysed by plotting the normalized values of peak tail current versus peak tail steady current in the presence of the respective cumulatively applied compound concentrations (Figure 4B, C). Data points were fitted using Hill equation.
On the technique in general: The hERG channel carries a current that helps repolarise heart muscle cells.

Data set [3] addresses Cav1.2 (rabbit α1-subunit with β2a and α2-δ1) (Oryctolagus cuniculus, UniProt P15381). Description: in vitro. Conditions: rabbit. As for the experimental part: (§2) The transfection of tsA‐201 cells was performed using the FUGENE6 Transfection Reagent (Roche Diagonstics GmbH, Mannheim, Germany) following standard protocols. The tsA‐201 cells were used until passage number 15. […] The extracellular bath solution (in mM: BaCl2 20, MgCl2 1, HEPES 10, choline‐Cl 90) was titrated to pH 7.4 with methanesulfonic acid. […] The drugs were applied to cells under voltage clamp using a microminifold perfusion system. Ca^2+ channel block was estimated as peak IBa inhibition during a train of short (50 ms) test pulses from −80 mV at a frequency of 0.2 Hz. Patch clamp experiments to study hERG, Nav1.5 and Cav1.2 currents were performed at room temperature (22–25°C). All data were digitized and saved to disc. Current traces were filtered at 5 kHz and sampled at 10 kHz. The pClamp software package (Version 7.0 Axon Instruments, Inc.) was used for data acquisition and preliminary analysis. Microcal Origin 7.0 was used for analysis, and sigmoidal curves were fitted using the Hill equation.
(§3) Use‐dependent channel inhibition was studied during trains of 1 Hz and 50 ms test pulses (from −80 to +10 mV). After the application of 20 test pulses in control (absence of drug), the cells were incubated for 3 min with drug at rest. Peak current inhibition during the first pulse (1st, Figure 6C) in the presence of the drug reflects ‘resting state’ block. Additional current inhibition during a subsequently applied pulse train illustrates use‐dependent block. Peak current inhibition in control and drug are compared in Figure 6D.

Data set [4] has as its target rabbit CaV1.2 α1-subunit with β2a and α2-δ1 (Oryctolagus cuniculus, UniProt P15381). Description: Barium current (IBa) inhibition through Cav1.2 in transfected tsA-201 cells, manual patch clamp. To be noted: for Resting state and use-dependent block of Cav1.2: 1 Hz trains of 50 ms pulses after 3 min incubation at rest; for Cav1.2 IC50 (peak IBa inhibition): rabbit, pH 7.4; for Peak current decay after 20 pulses at 1 Hz (use-dependent block): 50 ms pulses from -80 to +10 mV, control 12 ± 2%. As for the experimental part: as §2, §3
Background: The patch-clamp technique gives a direct electrical read-out from membranes.

For data set [5], the target named is Nav1.5 (Homo sapiens, UniProt Q14524). Description: Sodium current inhibition in HEK cells stably expressing Nav1.5, planar patch clamp. To be noted: for Shift of Nav1.5 concentration-response curve towards lower concentrations: -80 mV versus -140 mV holding potential. The procedure:
as §1

For data set [6], the system named is hERG potassium channels. To be noted: read-out: Ki binding studies; radioligand binding; ref Shagufta et al 2009; cited from earlier work.
The mark [7] stands for this setting: pH 7.4, Cav1.2 IC50 (peak IBa inhibition).
Setting [8] is: Nav1.5 IC50 (peak INa inhibition), holding potential -80 mV.
The mark [9] stands for this setting: Nav1.5 IC50 (peak INa inhibition), holding potential -140 mV, 0.2 Hz.

Data on three compounds can be found in PMC5573420, “Correlation between human ether‐a‐go‐go‐related gene channel inhibition and action potential prolongation” (British Journal of Pharmacology, 2017).

Each structure is given as a SMILES string. Several values for one entry are separate records, joined by “and”; a condition that tells them apart may be missing. Equal entries are not always repeated. Entries after “also recorded” stand apart in the source; their conditions may differ.

What is called IC50 is the midpoint of a concentration-inhibition curve. A word on the Ki: it is a measure of affinity in units of concentration, obtained from inhibition or displacement.

Cav1.2 (rabbit α1-subunit with β2a and α2-δ1), sequence (P15381 whole entry, other chains not shown, the tested form may be a part): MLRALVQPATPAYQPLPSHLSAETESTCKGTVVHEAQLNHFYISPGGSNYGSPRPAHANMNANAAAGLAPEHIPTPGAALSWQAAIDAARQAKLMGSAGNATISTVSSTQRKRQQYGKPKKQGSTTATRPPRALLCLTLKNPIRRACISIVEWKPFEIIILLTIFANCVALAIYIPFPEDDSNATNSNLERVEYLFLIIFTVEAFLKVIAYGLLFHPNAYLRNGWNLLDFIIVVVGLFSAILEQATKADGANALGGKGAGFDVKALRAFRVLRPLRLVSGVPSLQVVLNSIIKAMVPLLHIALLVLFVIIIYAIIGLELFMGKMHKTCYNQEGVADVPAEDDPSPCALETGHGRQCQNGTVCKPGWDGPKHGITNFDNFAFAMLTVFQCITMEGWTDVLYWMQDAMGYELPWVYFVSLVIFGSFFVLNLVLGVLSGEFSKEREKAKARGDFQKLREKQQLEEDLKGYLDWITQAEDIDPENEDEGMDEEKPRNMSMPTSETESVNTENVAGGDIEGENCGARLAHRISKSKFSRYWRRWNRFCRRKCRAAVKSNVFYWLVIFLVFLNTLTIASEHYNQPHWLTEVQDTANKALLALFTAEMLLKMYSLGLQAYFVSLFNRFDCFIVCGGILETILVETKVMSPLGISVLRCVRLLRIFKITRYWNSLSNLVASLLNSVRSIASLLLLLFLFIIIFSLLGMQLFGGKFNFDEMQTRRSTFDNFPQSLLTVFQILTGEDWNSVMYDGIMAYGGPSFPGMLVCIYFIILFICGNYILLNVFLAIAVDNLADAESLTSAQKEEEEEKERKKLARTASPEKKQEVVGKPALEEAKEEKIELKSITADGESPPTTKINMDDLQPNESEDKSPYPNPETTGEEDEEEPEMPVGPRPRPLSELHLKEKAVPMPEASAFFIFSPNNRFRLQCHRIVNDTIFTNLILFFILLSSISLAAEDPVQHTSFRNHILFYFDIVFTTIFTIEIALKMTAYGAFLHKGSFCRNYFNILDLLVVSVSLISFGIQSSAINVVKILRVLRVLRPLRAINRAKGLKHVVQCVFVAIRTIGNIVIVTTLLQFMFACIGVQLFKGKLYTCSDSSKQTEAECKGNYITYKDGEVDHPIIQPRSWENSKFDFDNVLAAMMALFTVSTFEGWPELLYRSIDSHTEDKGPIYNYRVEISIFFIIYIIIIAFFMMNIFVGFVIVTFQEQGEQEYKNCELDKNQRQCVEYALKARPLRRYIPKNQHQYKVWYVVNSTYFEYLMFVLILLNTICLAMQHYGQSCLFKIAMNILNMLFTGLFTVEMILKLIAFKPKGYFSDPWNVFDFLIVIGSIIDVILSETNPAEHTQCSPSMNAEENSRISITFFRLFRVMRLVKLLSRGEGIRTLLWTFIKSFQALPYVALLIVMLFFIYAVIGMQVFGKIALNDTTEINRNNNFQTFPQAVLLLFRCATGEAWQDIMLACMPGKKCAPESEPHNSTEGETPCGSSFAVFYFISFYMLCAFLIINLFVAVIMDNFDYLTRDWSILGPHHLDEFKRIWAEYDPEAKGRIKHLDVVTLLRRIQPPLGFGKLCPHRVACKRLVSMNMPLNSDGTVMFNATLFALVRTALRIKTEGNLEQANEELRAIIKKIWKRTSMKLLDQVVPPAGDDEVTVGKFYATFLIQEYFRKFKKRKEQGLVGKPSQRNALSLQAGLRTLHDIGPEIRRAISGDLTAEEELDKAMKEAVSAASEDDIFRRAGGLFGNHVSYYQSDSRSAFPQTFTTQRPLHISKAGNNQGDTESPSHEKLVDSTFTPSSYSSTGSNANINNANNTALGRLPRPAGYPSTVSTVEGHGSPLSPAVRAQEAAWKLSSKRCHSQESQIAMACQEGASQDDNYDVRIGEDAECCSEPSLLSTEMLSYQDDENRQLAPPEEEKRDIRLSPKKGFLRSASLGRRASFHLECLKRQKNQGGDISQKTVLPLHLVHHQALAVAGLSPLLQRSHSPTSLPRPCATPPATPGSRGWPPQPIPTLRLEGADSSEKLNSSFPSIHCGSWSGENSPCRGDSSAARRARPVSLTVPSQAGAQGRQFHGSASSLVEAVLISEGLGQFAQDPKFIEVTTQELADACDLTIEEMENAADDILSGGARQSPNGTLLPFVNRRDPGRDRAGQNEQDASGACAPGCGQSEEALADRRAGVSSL
Cav1.2 (rabbit α1-subunit with β2a and α2-δ1), sequence (P13806 27-960 partner limits assumed, other chains not shown): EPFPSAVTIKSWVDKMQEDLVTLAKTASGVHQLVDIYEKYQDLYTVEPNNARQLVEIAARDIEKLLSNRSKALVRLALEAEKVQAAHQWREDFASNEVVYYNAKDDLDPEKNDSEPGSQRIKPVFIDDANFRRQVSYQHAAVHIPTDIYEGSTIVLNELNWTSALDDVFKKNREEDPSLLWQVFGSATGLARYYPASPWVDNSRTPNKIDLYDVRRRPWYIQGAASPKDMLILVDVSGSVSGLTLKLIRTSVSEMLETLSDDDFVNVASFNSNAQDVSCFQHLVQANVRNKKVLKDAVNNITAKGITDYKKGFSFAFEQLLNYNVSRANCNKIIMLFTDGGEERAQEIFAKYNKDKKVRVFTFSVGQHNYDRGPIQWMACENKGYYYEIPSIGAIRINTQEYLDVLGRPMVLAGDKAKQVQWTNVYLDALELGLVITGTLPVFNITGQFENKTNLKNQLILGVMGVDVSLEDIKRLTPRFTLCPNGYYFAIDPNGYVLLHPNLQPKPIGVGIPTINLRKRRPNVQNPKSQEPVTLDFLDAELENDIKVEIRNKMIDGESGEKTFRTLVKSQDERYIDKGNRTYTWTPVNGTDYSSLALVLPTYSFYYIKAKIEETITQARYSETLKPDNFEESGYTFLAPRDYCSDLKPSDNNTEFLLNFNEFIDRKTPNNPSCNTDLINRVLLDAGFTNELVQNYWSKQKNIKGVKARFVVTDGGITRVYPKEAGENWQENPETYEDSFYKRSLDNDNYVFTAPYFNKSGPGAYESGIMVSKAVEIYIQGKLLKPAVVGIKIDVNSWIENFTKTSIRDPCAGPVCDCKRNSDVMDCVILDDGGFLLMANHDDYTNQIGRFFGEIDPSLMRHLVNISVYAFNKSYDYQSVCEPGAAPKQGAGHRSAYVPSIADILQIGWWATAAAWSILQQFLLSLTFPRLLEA
Cav1.2 (rabbit α1-subunit with β2a and α2-δ1), sequence (P13806 961-1106 partner limits assumed, other chains not shown): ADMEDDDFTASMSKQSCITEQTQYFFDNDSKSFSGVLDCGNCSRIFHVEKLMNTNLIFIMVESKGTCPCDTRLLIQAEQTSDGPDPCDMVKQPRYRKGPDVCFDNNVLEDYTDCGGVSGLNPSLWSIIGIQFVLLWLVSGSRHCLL
rabbit CaV1.2 α1-subunit with β2a and α2-δ1, sequence (P15381 whole entry, other chains not shown): as the sequence (P15381 whole entry, other chains not shown, the tested form may be a part) above
rabbit CaV1.2 α1-subunit with β2a and α2-δ1, sequence (P13806 27-960 partner limits assumed, other chains not shown): as the sequence (P13806 27-960 partner limits assumed, other chains not shown) above
rabbit CaV1.2 α1-subunit with β2a and α2-δ1, sequence (P13806 961-1106 partner limits assumed, other chains not shown): as the sequence (P13806 961-1106 partner limits assumed, other chains not shown) above

As for `CN(CCOc1ccc(Cl)c(Cl)c1)CCc1ccccc1` [Dofe44], in data set [1], the activity at 0.01 µM turned out to be 90%, the activity at 0.1 µM was 83%, the activity at 0.3 µM was 87% and the activity at 1 µM came out at 92%. In addition, the EC (50% APD prolongation) in data set [1] is greater than 0.6 µM. The “Effect on APD90 / AP prolongation (in words)” value in data set [1] (hiPSC-CMs) is “did not affect APD90 even at 1 μM; also recorded: did not induce prolongation of AP”. The compound further returned a half-maximal inhibitory concentration (IC50) in data set [2] of 0.0381 ± 0.0126 µM. The compound further registered an IC50 in data set [3] (setting [7]) greater than 100 µM. Moreover, in data set [4], the “Resting state and use-dependent block of Cav1.2” value is recorded as “No use‐dependent block”; the “Cav1.2 IC50 (peak IBa inhibition)” value was greater than 200 µM. Further, in data set [5], the “Shift of Nav1.5 concentration-response curve towards lower concentrations” value is listed as “fivefold”. The same compound gave an IC50 in data set [5] (setting [8]) of 4.7 ± 2 µM. In data set [5] (setting [9]), this compound yielded an IC50 of 23.3 ± 1.9 µM. Also, the Ki in data set [6] is 0.0024 ± 0.0022 µM.

As to `COc1ccc(OCCN(C)CCc2ccccc2)cc1` [Dofe42], in data set [1], the activity at 0.01 µM came to 113%, the activity at 0.1 µM was 92%, the activity at 0.3 µM came out at 95% and the activity at 1 µM is 98%. Besides, the EC (50% APD prolongation) in data set [1] was greater than 0.6 µM. For the same compound, in data set [1] (hiPSC-CMs), the “Effect on APD90 / AP prolongation (in words)” value is on record as “did not affect APD90 even at 1 μM; also recorded: did not induce prolongation of AP”. For the same compound, in data set [2], the midpoint of inhibition, the IC50, lay at 0.213 ± 0.0835 µM. This compound also gave an IC50 in data set [3] (pH 7.4, Cav1.2 IC50 (peak IBa inhibition), 0.2 Hz, 50 ms pulses from -80 to +10 mV) of 38 ± 9.3 µM. In addition, the “Peak current decay after 20 pulses at 1 Hz (use-dependent block)” value in data set [4] (100 μM) is 38 ± 2%. Also, the “Resting state and use-dependent block of Cav1.2” value in data set [4] was “pronounced resting state block and additional use‐dependent block”. The “Shift of Nav1.5 concentration-response curve towards lower concentrations” value in data set [5] turned out to be 5.6 fold. For the same compound, in data set [5] (setting [8]), the IC50 is 13.8 ± 1.9 µM. The compound also gave an IC50 in data set [5] (setting [9]) of 77.9 ± 9.7 µM. In data set [6], the Ki is 0.0033 ± 0.002 µM.

In the case of `CN(CCOc1ccc([N+](=O)[O-])cc1)CCc1ccccc1` [Dofe45], in data set [1], the activity at 0.01 µM was 71%, the activity at 0.1 µM was found to be 89%, the activity at 0.3 µM amounted to 95% and the activity at 1 µM came to 215%. For the same compound, the EC (50% APD prolongation) in data set [1] worked out at 0.538 µM. Besides, in data set [1] (hiPSC-CMs), the “Effect on APD90 / AP prolongation (in words)” value is “only slightly prolonged the AP; also recorded: slightly prolonged the AP at high concentrations” and the “Incidence of EADs” value is given as “without (if any) incidence of EADs”. In data set [3] (setting [7]), this compound had an IC50 of 0.19 ± 0.003 µM. The 50% inhibitory concentration (IC50) in data set [3] (pH 7.4, Cav1.2 IC50 used for AP simulation) is 0.2 µM. Besides, the “Peak current decay after 20 pulses at 1 Hz (use-dependent block)” value in data set [4] (100 nM) is on record as 42 ± 6%. For the same compound, in data set [4], the “Resting state and use-dependent block of Cav1.2” value was “pronounced resting state block and additional use‐dependent block”; the “Cav1.2 IC50 (peak IBa inhibition)” value came out at 0.192 ± 0.028 µM. In data set [5] (setting [9]), the IC50 came to 69.7 ± 1 µM. Moreover, the IC50 in data set [5] (Nav1.5 IC50 used for AP simulation, value entered in in silico hiPSC-CM AP model (Figure 8C)) is 8.9 µM and 10 µM. For the same compound, inhibition in data set [5] (human, pH 7.4, Nav1.5 IC50 (peak INa inhibition)) was half-maximal at 6.4 ± 1 µM (IC50).
